From patent US11718628B2, “SREBP inhibitors comprising a 6-membered central ring” (Capulus Therapeutics, LLC, priority 2018, dated 2023)
≈ marks a conversion by molar mass, not a printed value.

Legend:
[1] = Half-life in human liver microsomes; type: in vitro ADME; details: human, liver microsomes, NADPH, 37° C., read-out: G: half-life human liver microsomes
Description: (§1) Half-life Human Microsomes: Compounds were evaluated for stability in human liver microsomes. A 10 mM stock solution of the compound being evaluated was prepared in DMSO and diluted with water:acetonitrile (1:1) to a concentration of 1 mM. A working concentration of 100 μM was prepared by further dilution with water:acetonitrile (1:1). To make the preincubation mixture, 2.5 μL of the diluted compound was combined with 75 μL of human liver microsomes at 3.33 mg/mL, and 85 μL of 100 mM potassium phosphate buffer, and this mixture was pre-incubated for 10 min at 37° C. To make the 60 minute mixture without cofactor, 32.5 μL of the preincubation mixture was combined with 17.5 μL of 100 mM potassium phosphate buffer and incubated for 60 min at 37° C. To make the 0 min sample with cofactor (NADPH), 16.25 μL of the preincubation mixture was combined with 200 μL of acetonitrile containing internal standard and 8.75 μL of cofactor (NADPH). To make the incubation mixture, 62 μL of cofactor (2.85 mM) was combined with the remaining incubation mixture, and incubated for 60 min at 37° C. To prepare the sample mixture to be evaluated, 25 μL incubation mixture was combined with 200 μL of acetonitrile containing internal standard and vortexed for 5 min at 1200 rpm, then centrifuged for 10 min at 4000 rpm. The supernatant was diluted 2 fold with water and injected on LC-MS/MS. The sample mixture was evaluated by LC-MS/MS using 10 mM ammonium acetate with 0.1% FA as the aqueous mobile phase, and methanol as the organic mobile phase.

[2] = Half-life in mouse liver microsomes; type: in vitro ADME; details: mouse, liver microsomes, read-out: H: half-life of mouse liver microsomes
Description: as §1
Half-life Mouse Microsomes: Compounds were evaluated in mouse liver microsomes following a similar procedure as described above for human liver microsomes. A similar procedure could be used to evaluate compounds in rat liver microsomes.

Kinetic solubility = type: physicochemical; details: aqueous buffer, kinetic from dmso stock, pH 7.4 buffer, room temperature, 1.0% DMSO, read-out: I: kinetic solubility class
Description: Kinetic Solubility Procedure: A 10 mM stock solution of a compound was prepared in DMSO, then 4 μL of the stock was added to a deep well plate containing 396 μL of pH 7.4 buffer. The sample plate was vortexed at 800 rpm for 24 h on thermomixer at room temperature. The plate was sealed well during the incubation process. The DMSO content in the sample was 1.0%. The concentration of the evaluated compound in the final incubation was 100 μM. At the end of the incubation period, the sample plate was centrifuged at 4000 rpm for 10 min and analyzed in LC-UV against a calibration curve (CC). Values <10 μg/mL=Low; 10 to 60 μg/mL=Medium; >60 μg/mL=High.

Row | SMILES | half-life at 1 µM [1] [min] | half-life at 1 µM [2] [min] | solubility kinetic at 24 h (Kinetic solubility) [µg/mL]
1 | CC(C)(C)c1cc(-c2cncc(-c3cc(C(=O)N4CCC(O)CC4)ccc3Cl)c2)ccn1 | 2.62 | 1860 | 10 to 60 (≈ 22.2 to 133 µM)
2 | Cc1cc(S(=O)(=O)NC(C)C)ccc1-c1cncc(-c2ccnc(C(C)(C)C)c2)c1 | 1.69 | 177 | 10 to 60 (≈ 23.6 to 142 µM)
3 | CC(C)NS(=O)(=O)Nc1ccc(-c2cncc(-c3ccnc(C(C)(C)C)c3)c2)c(Cl)c1 | 27.3 | 178 | 10 to 60 (≈ 21.8 to 131 µM)
4 | Cc1c(-c2ccnc(C(C)(C)C)c2)cncc1-c1ccc(C(=O)N2CCCC(O)C2)cc1Cl (stereo not drawn) | 11.3 | 25.5 | < 10
5 | CC(C)(CNC(=O)c1ccc(-c2cncc(-c3ccnc(C(C)(C)C)c3)c2)c(Cl)c1)C(=O)O | 2.98 | 9.75 | 10 to 60 (≈ 21.5 to 129 µM)
6 | CC(C)(C)c1cc(-c2cc(-c3ccc(C(=O)N4CCC(O)CC4)cc3Cl)cc3cnccc23)ccn1 | 11.4 | 33.8 | 10 to 60 (≈ 20 to 120 µM)
7 | CC(C)(C)c1cc(-c2cc(-c3ccc(C(=O)N4CCC(O)CC4)cc3Cl)c3ccncc3c2)ccn1 | 119 | 108 | 10 to 60 (≈ 20 to 120 µM)
8 | CC(C)(C)c1cc(-c2cncc(-c3ccc(NC(=O)OC4CCNCC4)cc3Cl)c2)ccn1 | 1.78 | 1090 | < 10
9 | CC1(c2cc(-c3cncc(-c4ccc(C(=O)N5CCC(O)CC5)cc4Cl)c3)ccn2)OCCO1 | 9.74 | 101 | 10 to 60 (≈ 20.8 to 125 µM)
10 | CC(C)(C)c1cc(-c2cc(-c3ccc(C(=O)N4CCC(O)CC4)cc3Cl)cc3ncccc23)ccn1 | 19 | 10.2 | < 10
11 | CC(C)(C)c1cc(-c2cc(-c3ccc(C(=O)N4CCC(O)CC4)cc3Cl)c3cccnc3c2)ccn1 | 2.07 | 19.3 | < 10
12 | Cc1c(-c2ccnc(C(C)(C)C)c2)cncc1-c1ccc(C(=O)N2CCC(O)CC2)cc1Cl | 3.21 | 19.5 | 10 to 60 (≈ 21.6 to 129 µM)
13 | CN(C)c1cc(-c2ccnc(C(C)(C)C)c2)cc(-c2ccc(C(=O)N3CCC(O)CC3)cc2Cl)c1 | 20.7 | 13.6 | < 10
14 | CC(C)(C)c1cc(-c2cc(C#N)cc(-c3ccc(C(=O)N4CCC(O)CC4)cc3Cl)c2)ccn1 | 16.1 | 119 | < 10
15 | CC(C)(C)c1cc(-c2cc(F)cc(-c3ccc(C(=O)N4CCC(O)CC4)cc3Cl)c2)ccn1 | 74.6 | 13.6 | < 10
16 | CC(C)(C)c1cc(-c2cncc(-c3ccc(C(=O)N4CC[C@@H](O)C4)cc3Cl)c2)ccn1 | 5.01 | 31.5 | 10 to 60 (≈ 22.9 to 138 µM)
17 | CC1(O)CN(C(=O)c2ccc(-c3cncc(-c4ccnc(C(C)(C)C)c4)c3)c(Cl)c2)C1 | 6.72 | 39.8 | 10 to 60 (≈ 22.9 to 138 µM)
18 | CC(C)(C)c1cc(-c2cncc(-c3ccc(C(=O)N4CCC(F)CC4)cc3Cl)c2)ccn1 | 11 | 11 | < 10
19 | CC(C)(C)c1cc(-c2cncc(-c3ccc(C(=O)N4CC5C(O)C5C4)cc3Cl)c2)ccn1 (stereo not drawn) | 3.17 | 20 | 10 to 60 (≈ 22.3 to 134 µM)

Row | SMILES | half-life at 1 µM [1] [min] | half-life at 1 µM [2] [min] | solubility kinetic at 24 h (Kinetic solubility) [µg/mL]
20 | CC(C)(C)c1cc(-c2cncc(-c3ccc(NC(=O)N4CCC(O)CC4)cc3Cl)c2)ccn1 | 19.6 | > 120 | < 10
21 | O=C(c1ccc(-c2cncc(-c3ccnc(C4CC4)c3)c2)c(Cl)c1)N1CCC(O)CC1 | 36.5 | 54.9 | 10 to 60 (≈ 23 to 138 µM)
22 | CC(C)(C)c1cc(-c2cncc(-c3ccc(NS(=O)(=O)CC(F)(F)F)cc3Cl)c2)ccn1 | 6.03 | > 120 | < 10
23 | CC1(O)CCC(C(=O)c2ccc(-c3cncc(-c4ccnc(C(C)(C)CO)c4)c3)c(Cl)c2)CC1 (stereo not drawn) | 10 | 63.6 | 10 to 60 (≈ 20.9 to 125 µM)
24 | CC(C)(CO)c1cc(-c2cncc(-c3ccc(NS(C)(=O)=O)cc3Cl)c2)ccn1 | 6.5 | > 120 | < 10
25 | CC(C)OC(=O)Nc1ccc(-c2cncc(-c3ccnc(C(C)(C)CO)c3)c2)c(Cl)c1 | 21.5 | 87.8 | < 10
26 | CC(C)(C)c1cc(-c2cncc(-c3ccc(C(=O)N4CC5CCC(C4)C5O)cc3Cl)c2)ccn1 (stereo not drawn) | 15.4 | 21.3 | < 10
27 | CC(C)(C)c1cc(-c2cncc(-c3ccc(C(=O)N4CC(O)C(O)C4)cc3Cl)c2)ccn1 (stereo not drawn) | 29.4 | 75.6 | 10 to 60 (≈ 22.1 to 133 µM)
28 | CC(C)(C)c1cc(-c2cncc(-c3ccc(C(=O)N4C[C@@H](O)[C@@H](O)C4)cc3Cl)c2)ccn1 | 27.1 | 36.2 | 10 to 60 (≈ 22.1 to 133 µM)
29 | CC(C)(C)c1cc(-c2cncc(-c3ccc(C(=O)N4CC(CO)C4)cc3Cl)c2)ccn1 | 1.74 | 26.5 | 10 to 60 (≈ 22.9 to 138 µM)
30 | CC(C)(C)c1cc(-c2cncc(-c3ccc(C(=O)N4CC(O)C4)cc3Cl)c2)ccn1 | 2.01 | 38.3 | 10 to 60 (≈ 23.7 to 142 µM)
31 | CC(C)(C)c1cc(-c2cccc(-c3ccc(NS(=O)(=O)C(F)(F)F)cc3Cl)c2F)ccn1 | 0.54 | 81.3 | 10 to 60 (≈ 20.5 to 123 µM)
32 | CC(C)(C)c1cc(-c2cccc(-c3ccc(NS(C)(=O)=O)cc3Cl)c2)ccn1 | 90.8 | 110 | < 10
33 | CC(C)(C)c1cc(-c2cccc(-c3ccc(NS(C)(=O)=O)cc3Cl)c2F)ccn1 | 16.4 | 206 | < 10
34 | CC(C)(C)c1cc(-c2cccc(-c3ccc(C(=O)N4CCC(O)CC4)cc3Cl)c2F)ccn1 | 16.3 | 40.3 | < 10
35 | CC(C)(C)c1cc(-c2cccc(-c3ccc(C(=O)NS(=O)(=O)C4CC4)cc3Cl)c2)ccn1 | 12.1 | 66.7 | 10 to 60 (≈ 21.3 to 128 µM)
36 | CC(C)(C)c1cc(-c2cccc(-c3ccc(NS(=O)(=O)CC(F)(F)F)cc3Cl)c2)ccn1 | > 120 | > 120 | < 10
37 | CC(C)(C)c1cc(-c2cccc(-c3ccc(NC(=O)N4CCC(O)CC4)cc3Cl)c2)ccn1 | 72.1 | 400 | < 10
